Assay results: patent US8791155B2, “Chroman derivatives” (Edison Pharmaceuticals, Inc., priority 2003, dated 2014)

System: IL-1β release from a mouse microglial cell line
Assay: Interleukin-1β microglial cell assay (LPS / IFN gamma)
Type: cell-based
Conditions: LPS (10 μg/ml) and IFN gamma (10 ng/ml), 24 hours, read-out: EC50, inhibition of IL-1 beta induction
Procedure: This assay measures the release of IL-1β from a mouse microglial cell line following an inflammatory challenge with LPS and interferon-gamma. The ability of test articles to inhibit microglial cell activation and IL-1β release is determined by co-incubation of the test article with the inflammatory challenge.
Mouse microglial cells were seeded in poly-D-lysine coated 96-well plates at a density of 10,000 cells/well and allowed to attach for 24 hours. Cells were stimulated by addition of LPS (10 μg/ml) and IFN gamma (10 ng/ml) in the presence or absence of test article. The cells were then incubated for 24 hours at 37° C., after which time the media was removed and used for cytokine determination as described below.
Viability of mouse microglial cells after exposure to the test article was determined using a fluorescent viability dye, Cell Tracker Green. Cell Tracker Green was used at a working concentration of 5 μM in 1×HBSS. Cells were washed once with HBSS (200 μl/well) and 100 μl Cell Tracker Green was added to each well. Cells were then incubated at 37° C. for 30 minutes, after which time the Cell Tracker was removed and the cells were washed once with HBSS (200 μl/well). 100 pl fresh HBSS was added to each well and the plate was read on a Fluoroskan plate reader using an excitation wavelength of 485 nm and an emission wavelength of 538 nm.
1. […]
• The Costar EIA Hi-binding plate was coated with capture antibody at 4 μg/ml. […] Each well was filled to the top, dispensed, and any remaining buffer was removed by inverting the plate and gently blotting against clean paper towels. • Non-specific binding sites were blocked by adding 300 μl of Blocking Buffer to each well, and after sealing incubating for at least 1 hour at room temperature. • After washing the plate was now ready for the samples. […] 100 μl of this Substrate Solution mixture was added to each well and the plate was incubated in the dark for 20 minutes at room temperature. • 50 μl of Stop Solution was added to each well, mixing was ensured by gently tapping. • Each plate was read with the Spectramax once at 450 nm. […]

Row | Compound | EC50
1 | CC1=NN(c2ccccc2)C(=O)C1C(CCC1(C)CCc2cc(O)c(C)c(C)c2O1)C1C(=O)N(c2ccccc2)N=C1C (centres unmarked) [1-(6-Hydroxy-2,7,8-trimethyl-chroman-2-yl)-3-bis-(5-methyl-2-phenyl-2,4-dihydro-pyrazol-3-one-4-yl)-propane] | ≤ 20 µM
2 | Cc1c(O)cc2c(c1C)OC(C)(CC/C=C1\SC(=O)NC1=O)CC2 (centres unmarked) [5-[3-(6-Hydroxy-2,7,8-trimethyl-chroman-2-yl)-propylidene]-thiazolidine-2,4-dione] | ≤ 20 µM
